In US10758534B2 (Vertex Pharmaceuticals Incorporated, priority 2014, dated 2020) one finds EC30 data, which are given here for 29 compounds.

Like-named read-outs stand apart in the source and are kept apart here.

The target of the assay is T1, F508del (Homo sapiens, UniProt P13569, DEL508-508).
T1 construct: expressed in transfected cells
Briefly: Protocol 2: FRET membrane potential optical assay (VIPR), identification of correction compounds. The assay is classed as cell-based. An outline of the steps: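 Single-addition HTS format: F508del-expressing NIH3T3 cells pre-incubated 16 hrs at 37° C. ± compound, with 27° C. culture as positive control. Channel activation by forskolin 10 μM and genistein 20 μM upon switch to gluconate bath, pH 7.4; read-out is FRET-based depolarization signal.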

Where [1] appears, read: F508del CFTR modulator activity, compounds of Table 1, read-out: EC30.
[2] abbreviates: Table 3, compounds of Table 1 as modulators of CFTR activity, protocol not stated.

What is called EC30 is the point of the concentration-response curve where the effect stands at 30%.

T1 sequence (P13569 with tags, fused parts or gaps DEL508-508): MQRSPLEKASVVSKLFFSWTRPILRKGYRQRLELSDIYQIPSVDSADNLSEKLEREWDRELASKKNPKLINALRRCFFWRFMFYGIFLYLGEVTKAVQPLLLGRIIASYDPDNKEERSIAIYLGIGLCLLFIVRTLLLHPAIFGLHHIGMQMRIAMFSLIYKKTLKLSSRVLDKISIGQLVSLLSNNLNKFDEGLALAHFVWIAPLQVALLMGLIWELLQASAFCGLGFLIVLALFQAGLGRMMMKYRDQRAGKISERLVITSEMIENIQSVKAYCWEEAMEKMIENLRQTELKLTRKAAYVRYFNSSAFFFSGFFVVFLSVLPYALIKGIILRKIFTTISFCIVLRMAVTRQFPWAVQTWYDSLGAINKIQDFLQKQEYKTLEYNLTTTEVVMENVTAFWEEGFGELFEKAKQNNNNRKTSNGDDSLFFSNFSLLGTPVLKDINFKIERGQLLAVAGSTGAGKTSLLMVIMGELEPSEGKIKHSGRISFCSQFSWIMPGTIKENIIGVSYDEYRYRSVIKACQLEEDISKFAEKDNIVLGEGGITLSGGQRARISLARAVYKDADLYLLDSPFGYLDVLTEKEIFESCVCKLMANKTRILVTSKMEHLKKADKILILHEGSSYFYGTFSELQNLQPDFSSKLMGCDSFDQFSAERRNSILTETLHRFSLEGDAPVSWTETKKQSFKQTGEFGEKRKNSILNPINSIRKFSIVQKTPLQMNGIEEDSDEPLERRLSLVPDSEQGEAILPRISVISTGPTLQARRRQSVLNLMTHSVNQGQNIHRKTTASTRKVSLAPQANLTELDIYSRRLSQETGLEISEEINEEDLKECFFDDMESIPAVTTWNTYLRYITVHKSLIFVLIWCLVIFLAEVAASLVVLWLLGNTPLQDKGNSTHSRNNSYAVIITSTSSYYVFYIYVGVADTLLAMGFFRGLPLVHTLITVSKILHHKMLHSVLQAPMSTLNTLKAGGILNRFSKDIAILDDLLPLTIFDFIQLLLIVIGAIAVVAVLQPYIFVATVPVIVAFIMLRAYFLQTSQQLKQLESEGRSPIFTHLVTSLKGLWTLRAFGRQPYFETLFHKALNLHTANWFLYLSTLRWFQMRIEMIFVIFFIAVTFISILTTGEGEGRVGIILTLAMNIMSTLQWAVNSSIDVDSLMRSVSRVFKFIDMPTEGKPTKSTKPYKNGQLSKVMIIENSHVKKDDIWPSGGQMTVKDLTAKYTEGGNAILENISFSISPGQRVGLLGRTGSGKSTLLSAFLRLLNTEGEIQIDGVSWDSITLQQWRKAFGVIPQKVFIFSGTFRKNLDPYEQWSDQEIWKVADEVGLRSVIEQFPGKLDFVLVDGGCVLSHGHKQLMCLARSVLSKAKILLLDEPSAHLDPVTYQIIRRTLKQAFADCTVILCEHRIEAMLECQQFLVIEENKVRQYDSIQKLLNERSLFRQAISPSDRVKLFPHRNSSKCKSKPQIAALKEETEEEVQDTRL

As for `CC1CN(c2ncccc2C(=O)NS(=O)(=O)c2cccc(NCc3cccc(C(F)(F)F)n3)n2)C(C)(C)C1` (centres unmarked) [Compound 2365, N—[[6-[[6-(trifluoromethyl)-2-pyridyl]methylamino]-2-pyridyl]sulfonyl]-2-(2,2,4-trimethylpyrrolidin-1-yl)pyridine-3-carboxamide], under setting [1], the EC30 was less than 3 µM.

Consider `Cc1cc(C(=O)NS(=O)(=O)c2cccc(N)n2)c(N2[C@H](C)CC[C@@H]2C)nc1-c1ccc(OC(C)C)nc1` [Compound 486, N-[(6-amino-2-pyridyl)sulfonyl]-2-[(2R,5S)-2,5-dimethylpyrrolidin-1-yl]-6-(6-isopropoxy-3-pyridyl)-5-methyl-pyridine-3-carboxamide], for which, under setting [2], the EC30 result is “++ (“++” means between 3 uM and 10 uM)”.

Turning to `Cc1ccc(Oc2cccc(S(=O)(=O)NC(=O)c3cccnc3N3CC(C)CC3(C)C)n2)cc1` (centres unmarked) [Compound 2460, N—[[6-(4-methylphenoxy)-2-pyridyl]sulfonyl]-2-(2,2,4-trimethylpyrrolidin-1-yl)pyridine-3-carboxamide], under setting [1], the EC30 is less than 3 µM.

Regarding `Cc1cc(C)c(Oc2nc(-c3ccccc3F)ccc2C(=O)NS(=O)(=O)c2cccc(N)n2)c(C)c1` [Compound 463, N-[(6-amino-2-pyridyl)sulfonyl]-6-(2-fluorophenyl)-2-(2,4,6-trimethylphenoxy)pyridine-3-carboxamide], under setting [2], the EC30 result is “++ (“++” means between 3 uM and 10 uM)”.

Regarding `Cc1cc(C)c(CN2CCc3ccccc3CC2C(=O)NS(=O)(=O)c2ccc[nH]c2=O)c(C)c1` (centres unmarked) [Compound 662, N-[(2-oxo-1H-pyridin-3-yl)sulfonyl]-3-[(2,4,6-trimethylphenyl)methyl]-1,2,4,5-tetrahydro-3-benzazepine-4-carboxamide], under setting [2], the EC30 result is listed as “+ (“+” means greater than 10 uM)”.

As to `CC(C1CCCCC1)n1nc(C(C)(C)C)cc1C(=O)NS(=O)(=O)c1cccc(N)c1` (centres unmarked) [Compound 287, N-(3-aminophenyl)sulfonyl-5-tert-butyl-2-(1-cyclohexylethyl)pyrazole-3-carboxamide], the EC30 entry under setting [2] was “+++ (“+++” means <3 uM)”.

As for `Cc1cc(C)c(Oc2nc3c(C)cccc3cc2C(=O)NS(=O)(=O)c2cccc(N)n2)c(C)c1` [Compound 70, N-[(6-amino-2-pyridyl)sulfonyl]-8-methyl-2-(2,4,6-trimethylphenoxy)quinoline-3-carboxamide], the EC30 entry under setting [2] is on record as “+++ (“+++” means <3 uM)”.

In the case of `COc1ccc(F)cc1-c1ccc(C(=O)NS(=O)(=O)c2cccnc2N)c(N2C[C@@H](C)CC2(C)C)n1` [Compound 2189, N-[(2-amino-3-pyridyl)sulfonyl]-6-(5-fluoro-2-methoxy-phenyl)-2-[(4S)-2,2,4-trimethylpyrrolidin-1-yl]pyridine-3-carboxamide], the EC30 under setting [1] is less than 3 µM.

Regarding `CC1CN(c2ncc(-c3cc(OC(C)C)ccc3Cl)cc2C(=O)NS(=O)(=O)c2cccc(N)n2)C(C)(C)C1` (centres unmarked) [Compound 2210, N-[(6-amino-2-pyridyl)sulfonyl]-5-(2-chloro-5-isopropoxy-phenyl)-2-(2,2,4-trimethylpyrrolidin-1-yl)pyridine-3-carboxamide], under setting [1], the EC30 is less than 3 µM.

As for `Cc1cc(C)c(Oc2nc(C(C)(C)C)ccc2C(=O)NS(=O)(=O)c2cccc(N(C)C)n2)c(C)c1` [Compound 468, 6-tert-butyl-N-[[6-(dimethylamino)-2-pyridyl]sulfonyl]-2-(2,4,6-trimethylphenoxy)pyridine-3-carboxamide], under setting [2], the EC30 entry was “+++ (“+++” means <3 uM)”.

With `Cc1ccccc1N(C)c1nc(C(C)(C)C)ccc1C(=O)NS(=O)(=O)c1cccc(N)c1` [Compound 193, N-(3-aminophenyl)sulfonyl-6-tert-butyl-2-(N,2-dimethylanilino)pyridine-3-carboxamide], the EC30 result under setting [2] is listed as “+++ (“+++” means <3 uM)”.

Regarding `C[C@@H]1CN(c2nc(-c3cc(O)cc(F)c3)ccc2C(=O)NS(=O)(=O)c2cccnc2N)C(C)(C)C1` [Compound 2349, N-[(2-amino-3-pyridyl)sulfonyl]-6-(3-fluoro-5-hydroxy-phenyl)-2-[(4S)-2,2,4-trimethylpyrrolidin-1-yl]pyridine-3-carboxamide], the EC30 under setting [1] is 3 to 10 µM.

Take `CCOc1cccc(Nc2cccc(S(=O)(=O)NC(=O)c3cccnc3N3CC(C)CC3(C)C)n2)c1` (centres unmarked) [Compound 2526, N—[[6-(3-ethoxyanilino)-2-pyridyl]sulfonyl]-2-(2,2,4-trimethylpyrrolidin-1-yl)pyridine-3-carboxamide]: under setting [1], the EC30 was less than 3 µM.

Regarding `Cc1cc(C)c(Oc2nc(C3=CCC(C)(C)CC3)ccc2C(=O)NS(=O)(=O)c2ccc[nH]c2=O)c(C)c1` [Compound 573, 6-(4,4-dimethylcyclohexen-1-yl)-N-[(2-oxo-1H-pyridin-3-yl)sulfonyl]-2-(2,4,6-trimethylphenoxy)pyridine-3-carboxamide], the EC30 result under setting [2] is given as “+++ (“+++” means <3 uM)”.

As to `CC(C)(C)c1ccc(C(=O)NS(=O)(=O)c2cccc(N)n2)c(N2CCC(C3CCOCC3)C2(C)C)n1` (centres unmarked) [Compound 2139], the EC30 under setting [1] was less than 3 µM.

In the case of `COc1ncccc1S(=O)(=O)NC(=O)C1c2cccc(-c3ccccc3)c2CN1Cc1c(C)cc(C)cc1C` (centres unmarked) [Compound 427, N-[(2-methoxy-3-pyridyl)sulfonyl]-4-phenyl-2-[(2,4,6-trimethylphenyl)methyl]isoindoline-1-carboxamide], the EC30 result under setting [2] is “+++ (“+++” means <3 uM)”.

Take `Cc1cc(C)c(Oc2nc(-c3cc(O)cc(F)c3)ccc2C(=O)NS(=O)(=O)c2cccc(N)n2)c(C)c1` [Compound 505, N-[(6-amino-2-pyridyl)sulfonyl]-6-(3-fluoro-5-hydroxy-phenyl)-2-(2,4,6-trimethylphenoxy)pyridine-3-carboxamide]: under setting [2], the EC30 entry is “++ (“++” means between 3 uM and 10 uM)”.

Take `CC(C)c1ccccc1-c1ccc(C(=O)NS(=O)(=O)c2cccnc2N)c(N2C[C@@H](C)CC2(C)C)n1` [Compound 2172, N-[(2-amino-3-pyridyl)sulfonyl]-6-(2-isopropylphenyl)-2-[(4S)-2,2,4-trimethylpyrrolidin-1-yl]pyridine-3-carboxamide]: the EC30 under setting [1] is less than 3 µM.

Take `C#Cc1ccc(COc2cccc(S(=O)(=O)NC(=O)c3cccnc3N3CC(C)CC3(C)C)n2)cc1` (centres unmarked) [Compound 2610, N—[[6-[(4-ethynylphenyl)methoxy]-2-pyridyl]sulfonyl]-2-(2,2,4-trimethylpyrrolidin-1-yl)pyridine-3-carboxamide]: the EC30 under setting [1] is less than 3 µM.

Regarding `COc1cccc(-c2ccc(C(=O)NS(=O)(=O)N3CC[C@H](N)C3)c(N3C[C@@H](C)CC3(C)C)n2)c1` [Compound 2240, N-[(3S)-3-aminopyrrolidin-1-yl]sulfonyl-6-(3-methoxyphenyl)-2-[(4S)-2,2,4-trimethylpyrrolidin-1-yl]pyridine-3-carboxamide], the EC30 under setting [1] lay in the range of 3 to 10 µM.

`Cc1cc(C)c(Cc2ccc(C(C)(C)C)nc2C(=O)NS(=O)(=O)c2ccccc2)c(C)c1` [Compound 22, N-(benzenesulfonyl)-6-tert-butyl-3-[(2,4,6-trimethylphenyl)methyl]pyridine-2-carboxamide]: under setting [2], the EC30 result is “+++ (“+++” means <3 uM)”.

On to `C[C@@H]1CC[C@H](C)N1c1nc(-c2ccc(OC3CCC3)nc2)ccc1C(=O)NS(=O)(=O)c1cccc(N)n1` [Compound 428, N-[(6-amino-2-pyridyl)sulfonyl]-6-[6-(cyclobutoxy)-3-pyridyl]-2-[(2S,5R)-2,5-dimethylpyrrolidin-1-yl]pyridine-3-carboxamide], for which the EC30 entry under setting [2] is “+++ (“+++” means <3 uM)”.

Turning to `CC(C)Oc1ccn(-c2ccc(C(=O)NS(=O)(=O)c3ccc[nH]c3=O)c(N3C[C@@H](C)CC3(C)C)n2)n1` [Compound 2360, 6-(3-isopropoxypyrazol-1-yl)-N-[(2-oxo-1H-pyridin-3-yl)sulfonyl]-2-[(4S)-2,2,4-trimethylpyrrolidin-1-yl]pyridine-3-carboxamide], the EC30 under setting [1] was in the range of 3 to 10 µM.

With `Cc1ccccc1C(C)n1nc(C(C)(C)C)cc1C(=O)NS(=O)(=O)c1cccc(N)c1` (centres unmarked) [Compound 342, N-(3-aminophenyl)sulfonyl-5-tert-butyl-2-[1-(o-tolyl)ethyl]pyrazole-3-carboxamide], under setting [2], the EC30 result is on record as “+++ (“+++” means <3 uM)”.

In the case of `COc1ncccc1-c1ccc(C(=O)NS(=O)(=O)c2cccc(N)n2)c(N2CC(C)CC2(C)C)n1` (centres unmarked) [Compound 526, N-[(6-amino-2-pyridyl)sulfonyl]-6-(2-methoxy-3-pyridyl)-2-(2,2,4-trimethylpyrrolidin-1-yl)pyridine-3-carboxamide], the EC30 result under setting [2] is listed as “+++ (“+++” means <3 uM)”.

For `CCC1(C)CCCN(c2nc(-c3cc(F)cc(OCC(C)C)c3)ccc2C(=O)NS(=O)(=O)c2cccc(N)n2)C1` (centres unmarked) [Compound 530, N-[(6-amino-2-pyridyl)sulfonyl]-2-(3-ethyl-3-methyl-1-piperidyl)-6-(3-fluoro-5-isobutoxy-phenyl)pyridine-3-carboxamide], the EC30 entry under setting [2] is “+++ (“+++” means <3 uM)”.

`CC(C)Oc1ccc(-c2ccc(C(=O)NS(=O)(=O)c3cccc(N)n3)c(N3CC4C(C3)C4(C)C)n2)cn1` (centres unmarked) [Compound 596, N-[(6-amino-2-pyridyl)sulfonyl]-2-(6,6-dimethyl-3-azabicyclo[3.1.0]hexan-3-yl)-6-(6-isopropoxy-3-pyridyl)pyridine-3-carboxamide]: the EC30 result under setting [2] is “++ (“++” means between 3 uM and 10 uM)”.

Consider `CC(C)COc1ccc(-c2ccc(C(=O)NS(=O)(=O)c3cccc(N)n3)c(N3[C@H](C)CC[C@@H]3C)n2)cn1` [Compound 544, N-[(6-amino-2-pyridyl)sulfonyl]-2-[(2S,5R)-2,5-dimethylpyrrolidin-1-yl]-6-(6-isobutoxy-3-pyridyl)pyridine-3-carboxamide], for which, under setting [2], the EC30 entry is listed as “+++ (“+++” means <3 uM)”.

Consider `Cc1ccc(-c2ccc(C(=O)NS(=O)(=O)N3CC[C@H](N)C3)c(N3C[C@@H](C)CC3(C)C)n2)cc1C` [Compound 2605, N-[(3S)-3-aminopyrrolidin-1-yl]sulfonyl-6-(3,4-dimethylphenyl)-2-[(4S)-2,2,4-trimethylpyrrolidin-1-yl]pyridine-3-carboxamide], for which, under setting [1], the EC30 lay within 3 to 10 µM.
